We go through 80 molecules from the METLIN SMRT retention time set (Domingo-Almenara et al. 2019).

Structures are written as SMILES.

The data set can be described thus: gradient 5% acetonitrile 3 min, to 50% in 2 min, to 85% in 15 min, held 3 min, 100 µL/min. The note with it: column: Zorbax Extend-C18 2.1 x 50 mm; eluents: water / acetonitrile, 0.1% formic acid. An outline of the steps: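 Retention time was recorded from adduct peaks, which were picked computationally and each inspected manually. Pure standards ran in mixtures of ~100 molecules on HPLC coupled to a quadrupole time-of-flight mass spectrometer, in positive and negative ionization mode, through a Zorbax Extend-C18 column (2.1 × 50 mm, 1.8 μm) at 100 μL/min. Eluents were water and acetonitrile, each with 0.1% formic acid.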
Consider `COc1ccc(OC)c(CNC(=O)c2cn3cc(C)ccc3n2)c1`, for which the RP-LC retention time worked out at 694 s.

On to `O=C(NCCc1csc(-c2ccccc2)n1)C1CCN(S(=O)(=O)c2cccc(Cl)c2)CC1`, for which the RP-LC retention time was determined as 982 s.

`O=C(Oc1ccccc1)N(c1ccccc1)c1ccccc1` returned an RP-LC retention time of 1160 s.

In turn, `CN1CCCN(C(=O)c2cn(-c3ccc(-c4nc(C(C)(C)C)no4)cn3)cn2)CC1` yielded an RP-LC retention time of 656 s.

Regarding `O=C(NC1CCCCCC1)c1ccc2ccnc(N3CCN(c4ccc(F)cc4)CC3)c2c1`, the RP-LC retention time turned out to be 973 s.

On to `CCC(=O)Nc1nnc(SCc2nnc(-c3ccccc3)o2)s1`, for which the RP-LC retention time was determined as 739 s.

Regarding `O=S(=O)(NCCc1c[nH]c2ncccc12)c1ccccc1Br`, the RP-LC retention time was 630 s.

`Cc1nc(-c2ccc3c(c2)CCN3C(=O)c2ccc3c(c2)OCO3)cs1`: the RP-LC retention time was 951 s.

`Cc1c(C(=O)N2CCN(C)CC2)cnn1-c1cc(-c2nc(C3CC3)no2)ccn1`: the RP-LC retention time was found to be 630 s.

In turn, `CN(C1CCc2nn(CC3CC3)c(=O)n2CC1)S(=O)(=O)Cc1ccccc1` (stereo not given) displayed an RP-LC retention time of 747 s.

`Cc1ccc(-c2nc(NC(=O)c3cncc(Br)c3)sc2C)cc1` displayed an RP-LC retention time of 1180 s.

For the molecule `CCOc1cccc(C2CC(c3ccccc3)=NC3(CCN(C(C)C)CC3)N2)c1O` (stereo not given), the RP-LC retention time amounted to 612 s.

With `Cc1nn(C(C)C(=O)NCCC(C)C)c(=O)c2c(C)n(-c3ccccc3)nc12` (stereo not given), the RP-LC retention time was determined as 948 s.

Regarding `COc1ccc(CNC(=O)Cn2c(C(F)(F)F)nc3cc4c(cc32)OCCO4)cc1`, the RP-LC retention time amounted to 813 s.

In turn, `Fc1cccc(CSc2ccc(-n3ccnc3)nn2)c1` returned an RP-LC retention time of 604 s.

In the case of `CN1CCCC1c1nc(C2CN(C(=O)c3cccn3C)C2)no1` (stereo not given), the RP-LC retention time was 548 s.

The molecule `O=c1n(Cc2cccc(Cl)c2)nc2c(S(=O)(=O)N3CCCC3)cccn12` had an RP-LC retention time of 882 s.

In turn, `CCn1nccc1-c1cccc(-c2noc(-c3cccc(NC(=O)c4ccco4)c3)n2)c1` gave an RP-LC retention time of 1080 s.

As to `CCNC(=O)N1CC(C(=O)N(C)C)C2(CCOCC2)C1` (stereo not given), the RP-LC retention time worked out at 520 s.

For `COc1ccc(-c2cc3n(n2)CCCN(C(=O)c2cc4ccccc4[nH]2)C3)cc1`, the RP-LC retention time came out at 893 s.

As to `Cc1ccc(C)c2sc(N(C)CC(=O)NCCn3nc(-c4ccco4)ccc3=O)nc12`, the RP-LC retention time was found to be 784 s.

For `O=S(=O)(c1ccccc1F)N1CCC(OCc2noc(C3CCCO3)n2)CC1` (stereo not given), the RP-LC retention time was found to be 865 s.

For `Cc1ccn2c(NC(=O)c3cc(Br)ccc3Cl)c(-c3ccccc3)nc2c1`, the RP-LC retention time was found to be 735 s.

`CSc1ccc(NC(=O)c2c(C)oc3ccn(Cc4ccc(F)cc4)c(=O)c23)cc1` had an RP-LC retention time of 1270 s.

Regarding `O=C(Nc1ccc(N2CCOCC2)c(Br)c1)c1ccc2c(c1)OCCCO2`, the RP-LC retention time amounted to 959 s.

`COc1ccc(F)cc1-c1cc(NC(=O)[C@@H]2CCCNC2)ncc1Cl` displayed an RP-LC retention time of 737 s.

As for `O=C(NC1CCCCC1)C(c1ccc(Cl)cc1)N1CCN(C(=O)c2ccco2)CC1` (stereo not given), the RP-LC retention time was found to be 773 s.

Turning to `CN(C)C(=O)COC(=O)Cc1ccc(OC(=O)c2ccc(N=C(N)N)cc2)cc1`, the RP-LC retention time was found to be 651 s.

For the molecule `CCC1(O)CCC12CCN(C(=O)c1cccs1)CC2` (stereo not given), the RP-LC retention time worked out at 718 s.

As for `CCn1c(C(=O)N(C)c2ccc(Br)cc2)cc2c(=O)oc3ccccc3c21`, the RP-LC retention time amounted to 1030 s.

`CCc1nc(-c2c(C)cc(C)nc2NC(=O)c2ccc(C)c(F)c2)no1` had an RP-LC retention time of 883 s.

On to `Cc1ccc2nc3sc(C(=O)N4CCN(c5ccccn5)CC4)cc3cc2c1`, for which the RP-LC retention time came to 664 s.

Turning to `CN(C)c1ccc(-c2nn3c(CSc4ccccc4)nnc3s2)cc1`, the RP-LC retention time stood at 1080 s.

Consider `CC(C)OCCCN1C(=O)CN(C2CCCCC2)C(=O)C1c1cccs1` (stereo not given), for which the RP-LC retention time was 991 s.

For `CCc1cc(=O)n(CC(=O)Nc2cccc(Cl)c2)c(-c2ccccc2)n1`, the RP-LC retention time turned out to be 1220 s.

For `CN(C)c1cccc(F)c1C(=O)NC(=O)Nc1ccc(Cl)cc1`, the RP-LC retention time was 990 s.

`COc1ccc(CCS(=O)(=O)NCC2CCN(Cc3ccccc3SC)CC2)cc1` gave an RP-LC retention time of 598 s.

In turn, `COc1ccc(NC(=O)C2CCc3nc(N4CCCC4)ncc3C2)cc1OC` (stereo not given) returned an RP-LC retention time of 719 s.

`COc1ccc(NC(=O)N2CCC3(CC2)N=C(c2ccc(F)cc2)C(=O)N3)c(OC)c1` yielded an RP-LC retention time of 773 s.

In turn, `O=C(NC1CCCCCC1)c1ccc2ncnc(N3CCCC3)c2c1` came in with an RP-LC retention time of 675 s.

For `Cc1cccc(CNC(=O)Cc2csc3nc(-c4ccccc4)cn23)c1`, the RP-LC retention time amounted to 880 s.

Molecule `CC(C)N1C(=O)C(C)(C(=O)NC2CCCCCC2)Oc2cccnc21` (stereo not given) had an RP-LC retention time of 1080 s.

With `O=C(CCc1nc(-c2ccc(N3CCCC3)cc2)no1)NCc1ccc2c(c1)OCO2`, the RP-LC retention time is 979 s.

`COc1ccc(-c2noc(C3(NC(=O)c4ccc(F)c(Cl)c4)CCCCC3)n2)cc1` showed an RP-LC retention time of 685 s.

As to `CCn1ccc(C(=O)N2CCC(c3noc(-c4cnccn4)n3)C2)n1` (stereo not given), the RP-LC retention time came out at 634 s.

`CSc1cccc(NC(=O)CSc2nccc(N3CCN(c4cc(C)ccc4C)CC3)n2)c1` displayed an RP-LC retention time of 938 s.

With `CCCCN(CC)c1ccc(C(=O)O)cc1NC(=O)c1cccs1`, the RP-LC retention time is 1070 s.

In the case of `CCCn1cc(S(=O)(=O)Nc2ccc(C)c(C)c2)c2cccnc21`, the RP-LC retention time turned out to be 960 s.

For the molecule `Cc1noc(C)c1CN1CCC(NC(=O)Cc2ccccc2Cl)C1` (stereo not given), the RP-LC retention time came out at 613 s.

On to `O=C1NC(Cc2c[nH]c3ccccc23)C(=O)N1c1cccc(Cl)c1` (stereo not given), for which the RP-LC retention time is 790 s.

The molecule `CCN1CCN(c2ncc(C(=O)Nc3c(F)cc(F)cc3Br)c3ccccc23)CC1` showed an RP-LC retention time of 581 s.

In turn, `COc1ccc(CNC(=O)c2ccc3c(=O)n(-c4cccc(OC)c4)c(N4CCCC4)nc3c2)cc1` showed an RP-LC retention time of 833 s.

In turn, `Cc1ccc(C2Cn3cnc(C(=O)N4CCC(C(=O)NCc5ccco5)CC4)c3CO2)cc1` (stereo not given) registered an RP-LC retention time of 729 s.

On to `COc1ccccc1NC(=O)C1CCc2nc(N3CCOCC3)ncc2C1` (stereo not given), for which the RP-LC retention time stood at 741 s.

In turn, `CCCn1c(=O)sc2cc(S(=O)(=O)N3CCC(C(=O)NCc4ccccn4)CC3)ccc21` displayed an RP-LC retention time of 662 s.

As for `CC(C)n1c(N2CCCN(C(=O)c3ccncc3)CC2)cc(=O)n(C(C)C)c1=O`, the RP-LC retention time is 621 s.

With `CCN1CCN(CCNC(=O)c2sc3ncccc3c2-n2c(C)ccc2C)CC1`, the RP-LC retention time amounted to 574 s.

Molecule `O=C(O)c1ccccc1C(=O)NCC1COc2ccccc2O1` (stereo not given) displayed an RP-LC retention time of 708 s.

Turning to `COCCOC(=O)c1c(C)oc2ccc(OC(=O)c3cccs3)cc12`, the RP-LC retention time was 1020 s.

Regarding `CSc1ccc(-c2nc3ncccn3c2Nc2cccc(C)c2)cc1`, the RP-LC retention time is 843 s.

Molecule `Cc1ccc(F)cc1NC(=O)Cn1nc2cc(-c3ccccc3)nc(C)n2c1=O` gave an RP-LC retention time of 972 s.

Consider `COc1cccc(S(=O)(=O)N2CCN(c3cc(C)nc(NC4CCCCC4)n3)CC2)c1`, for which the RP-LC retention time was determined as 795 s.

As for `O=C(Cc1cccs1)N1CCC(COc2ccc(C(=O)N3CCOCC3)cc2)CC1`, the RP-LC retention time was found to be 734 s.

`COc1cccc(C2Cn3nnc(-c4nc(-c5ccccc5OC)no4)c3CO2)c1` (stereo not given): the RP-LC retention time was found to be 1010 s.

`CCC(C)NC(=O)c1ccc2c(c1)N(C)C(=O)CS2` (stereo not given): the RP-LC retention time stood at 734 s.

Molecule `Cn1nc(C(=O)N2CCCCC2)c2c1CCN(C(=O)Nc1ccc3c(c1)OCO3)C2` displayed an RP-LC retention time of 717 s.

`O=C(CCc1ccccc1)NC1CCN(c2nnc3ccccn23)CC1` displayed an RP-LC retention time of 633 s.

`COCC(=O)Nc1ccc(N2CCC(N3CCCCC3)CC2)cc1C(=O)O` came in with an RP-LC retention time of 654 s.

In turn, `CCOC(=O)CNC(=O)N1CCc2nc(-c3ccccc3)ncc2C1` registered an RP-LC retention time of 720 s.

As for `Cc1cc(NC(=O)C(=O)NCC2(c3cccs3)CC2)no1`, the RP-LC retention time came out at 802 s.

For the molecule `O=C(NCc1ccccc1)C12CC3CCC(CC(C3)C1)C2`, the RP-LC retention time is 1020 s.

Take `CCn1c(=O)c(N2CCC(NC(=O)Nc3ccc4c(c3)OCCO4)CC2)nc2ccccc21`: the RP-LC retention time turned out to be 838 s.

`CCOc1ccccc1C1NC(=O)N(CC(=O)N2CCN(c3ccc(F)cc3)CC2)C2=C1C(=O)OC2` (stereo not given) yielded an RP-LC retention time of 830 s.

Consider `COc1ccccc1N1C(=O)C2ON(c3ccccc3)C(c3cccc([N+](=O)[O-])c3)C2C1=O` (stereo not given), for which the RP-LC retention time amounted to 615 s.

In turn, `Cc1ccc(Nc2ncccc2S(N)(=O)=O)cc1F` displayed an RP-LC retention time of 863 s.

Consider `O=C(Nc1nc(-c2ccccn2)cs1)c1ccc(N2CCOCC2)c([N+](=O)[O-])c1`, for which the RP-LC retention time was 631 s.

For `Cc1ccc(Cn2nnc(-c3noc(C)n3)c2C)cc1`, the RP-LC retention time is 860 s.

`Cc1ccc(C(=O)NCc2nc(-c3ccc(-c4csc(C)n4)cc3)no2)cc1` registered an RP-LC retention time of 964 s.

Turning to `COc1ccc(N2C(=O)C3N=NN(Cc4nc(-c5ccccc5)no4)C3C2=O)cc1` (stereo not given), the RP-LC retention time is 912 s.

Turning to `COc1ccccc1NC(=O)CN1C(=O)NC2(CCC(C)CC2)C1=O` (stereo not given), the RP-LC retention time came to 803 s.
